Data as given in the NIST ThermoML archive (doi:10.1021/je060222y).
“And” between values parts separate entries of the source, which are not always exact repeats. Equal values may be shown once. ± gives the expanded uncertainty stated by the source.

Key:
[1] = for mass density: 101.33 kPa, Liquid; for Triple point temperature: Crystal
[2] = Molar enthalpy of transition or fusion; conditions: Crystal
[3] = molar heat capacity at constant pressure; conditions: 101.33 kPa, Liquid, Small sample (50 mg) DSC

For CCCC[n+]1ccn(C)c1.O=S(=O)([N-]S(=O)(=O)C(F)(F)F)C(F)(F)F, which mass density ([1]; 278.15 K) is on record?
Its mass density is 1454.98 ± 1.7 kg/m3 and 1453.33 ± 1.7 kg/m3.

What about the mass density ([1]; 283.15 K) of the same compound?
The mass density was 1450.16 ± 1.7 kg/m3 and 1448.52 ± 1.7 kg/m3.

And the mass density ([1]; 288.15 K)?
Its mass density is 1445.33 ± 1.7 kg/m3 and 1443.69 ± 1.7 kg/m3.

And the mass density ([1]; 293.15 K)?
Its mass density is 1440.51 ± 1.7 kg/m3 and 1438.89 ± 1.6 kg/m3.

What about the mass density ([1]; 298.15 K) of the same compound?
Its mass density is 1435.73 ± 1.7 kg/m3 and 1434.1 ± 1.6 kg/m3.

What about the mass density ([1]; 303.15 K) of the same compound?
The mass density was 1430.94 ± 1.7 kg/m3 and 1429.31 ± 1.6 kg/m3.

What about the mass density ([1]; 308.15 K) of the same compound?
Its mass density is 1426.17 ± 1.6 kg/m3 and 1424.54 ± 1.6 kg/m3.

And the mass density ([1]; 313.15 K)?
Its mass density is 1421.4 ± 1.6 kg/m3 and 1419.78 ± 1.6 kg/m3.

What about the mass density ([1]; 318.15 K) of the same compound?
The mass density was 1416.66 ± 1.6 kg/m3 and 1415.04 ± 1.6 kg/m3.

What about the mass density ([1]; 323.15 K) of the same compound?
Its mass density is 1411.94 ± 1.6 kg/m3 and 1410.31 ± 1.6 kg/m3.

What about the mass density ([1]; 328.15 K) of the same compound?
The mass density was 1407.23 ± 1.6 kg/m3 and 1405.6 ± 1.6 kg/m3.

What about the mass density ([1]; 333.15 K) of the same compound?
The mass density was 1402.55 ± 1.6 kg/m3 and 1400.92 ± 1.5 kg/m3.

And the Triple point temperature [1]?
The Triple point temperature was 268.51 ± 0.77 K and 267.61 ± 0.77 K.

And the “Molar enthalpy of transition or fusion” value [2]?
The value was 5.36 kcal/mol and 5.86 kcal/mol.

What about the “molar heat capacity at constant pressure” value ([3]; 283.15 K) of the same compound?
The value was 558.99 ± 8.7 J/K/mol and 559.63 ± 8.7 J/K/mol.

What about the “molar heat capacity at constant pressure” value ([3]; 288.15 K) of the same compound?
The value was 561.29 ± 8.7 J/K/mol and 562.05 ± 8.7 J/K/mol.

And the “molar heat capacity at constant pressure” value ([3]; 293.15 K)?
The value was 564.02 ± 8.7 J/K/mol and 564.58 ± 8.8 J/K/mol.

And the “molar heat capacity at constant pressure” value ([3]; 298.15 K)?
Its value is 566.47 ± 8.8 J/K/mol and 567.33 ± 8.8 J/K/mol.

And the “molar heat capacity at constant pressure” value ([3]; 303.15 K)?
Its value is 569.01 ± 8.8 J/K/mol and 569.74 ± 8.8 J/K/mol.

What about the “molar heat capacity at constant pressure” value ([3]; 308.15 K) of the same compound?
The value was 572.11 ± 8.9 J/K/mol and 572.82 ± 8.9 J/K/mol.

What about the “molar heat capacity at constant pressure” value ([3]; 313.15 K) of the same compound?
The value was 575.03 ± 8.9 J/K/mol and 575.56 ± 8.9 J/K/mol.

And the “molar heat capacity at constant pressure” value ([3]; 318.15 K)?
Its value is 577.84 ± 8.9 J/K/mol and 578.49 ± 9 J/K/mol.

And the “molar heat capacity at constant pressure” value ([3]; 323.15 K)?
Its value is 581.06 ± 9 J/K/mol and 581.68 ± 9 J/K/mol.

And the “molar heat capacity at constant pressure” value ([3]; 328.15 K)?
The value was 584.36 ± 9.1 J/K/mol and 584.82 ± 9.1 J/K/mol.

For CCCCn1cc[n+](C)c1.F[P-](F)(F)(F)(F)F [1-butyl-3-methylimidazolium hexafluorophosphate], which mass density ([1]; 283.15 K) is on record?
The mass density was 1379.14 ± 1.5 kg/m3.

And the mass density ([1]; 288.15 K)?
The mass density was 1374.83 ± 1.4 kg/m3.

What about the mass density ([1]; 293.15 K) of the same compound?
The mass density was 1370.43 ± 1.4 kg/m3.

What about the mass density ([1]; 298.15 K) of the same compound?
Its mass density is 1366.12 ± 1.4 kg/m3.

And the mass density ([1]; 303.15 K)?
Its mass density is 1361.76 ± 1.4 kg/m3.

And the mass density ([1]; 308.15 K)?
Its mass density is 1357.52 ± 1.4 kg/m3.

And the mass density ([1]; 313.15 K)?
The mass density was 1353.35 ± 1.4 kg/m3.

What about the mass density ([1]; 318.15 K) of the same compound?
The mass density was 1349.16 ± 1.4 kg/m3.

What about the mass density ([1]; 323.15 K) of the same compound?
Its mass density is 1345.02 ± 1.4 kg/m3.

What about the Triple point temperature [1] of the same compound?
Its Triple point temperature is 280.03 ± 0.77 K.

And the “Molar enthalpy of transition or fusion” value ([2]; DSC)?
The value was 4.76 ± 0.139 kcal/mol.

And the “molar heat capacity at constant pressure” value ([3]; 283.15 K)?
Its value is 400.9 ± 6.2 J/K/mol.

And the “molar heat capacity at constant pressure” value ([3]; 288.15 K)?
Its value is 402.32 ± 6.2 J/K/mol.

What about the “molar heat capacity at constant pressure” value ([3]; 293.15 K) of the same compound?
The value was 404.97 ± 6.3 J/K/mol.

And the “molar heat capacity at constant pressure” value ([3]; 298.15 K)?
The value was 407.66 ± 6.3 J/K/mol.

What about the “molar heat capacity at constant pressure” value ([3]; 303.15 K) of the same compound?
The value was 410.33 ± 6.4 J/K/mol.

And the “molar heat capacity at constant pressure” value ([3]; 308.15 K)?
Its value is 413.14 ± 6.4 J/K/mol.

What about the “molar heat capacity at constant pressure” value ([3]; 313.15 K) of the same compound?
Its value is 415.98 ± 6.4 J/K/mol.

What about the “molar heat capacity at constant pressure” value ([3]; 318.15 K) of the same compound?
Its value is 418.91 ± 6.5 J/K/mol.

And the “molar heat capacity at constant pressure” value ([3]; 323.15 K)?
Its value is 421.88 ± 6.5 J/K/mol.
